Experimental data from US6616945B1, “Method for making a pharmaceutical formulation” (Leiras Oy, priority 1997, dated 2003).

Test: X-ray diffraction (XRD) study of crystallinity / amorphous content
Format: physicochemical
Protocol: FIG. 1 presents the X-ray diffraction (XRD) patterns of three salbutamol samples.
In FIG. 1, the XRD patterns of the three salbutamol samples, which were each treated differently before analysis is shown as follows:
Also the initial mean particle size had been increased close to the upper acceptable limit.
Samples of some months ago micronized material were suspended in n-heptane and stirred 7 and 16 hours at 70° C., followed by drying.
Specific surface area and the energy for moisture absorption during transfer from 0 to 80% RH were metered: […]

With salbutamol sulphate the “change in amount of amorphous matter” value (micronized drug stored 10 hors at 40° C. and 50% RH) was “clear decrease”, the “crystallinity by XRD” value (stirred 7 hours at 50° C. as n-heptane suspension) was “slightly less” and the “crystallinity by XRD” value (stirred 7 hours at 60° C. as n-heptane suspension) was “practically total crystallinity”. For the same substance, the “crystallinity by XRD” value (stirred 7 hours at 70° C. as n-heptane suspension) was “practically total crystallinity” and the “amorphous content by XRD” value (untreated micronized sample) was “a detectable amount of the drug was amorphous”.
